Reference: patent US12285428B2 (IMBRIA PHARMACEUTICALS, INC., priority 2021, dated 2025)

Legend:
[1] = system: healthy subjects; assay: FIH study, MAD part: safety and tolerability; assay type: in vivo, human; conditions: MAD part
Protocol: Subjects received multiple oral doses of an IR formulation of IMB-1018972 or placebo once every 12 hours (q12h) for 14 consecutive days. Each subject participated in only 1 group during the study.
The doses were selected based upon the safety, tolerability, and PK data from the SAD part: • Group B1 multiple oral doses of an IR formulation of 150 mg IMB-1018972 (n=9) or matching placebo (n=3) twice daily (q12h) for 14 days; on Day 14 only a single morning dose was administered • Group B2: multiple oral doses of an IR formulation of 50 mg IMB-1018972 (n=9) or matching placebo (n=3) q12h for 14 days; on Day 14 only a single morning dose was administered
(§1) AEs were recorded from (first) admission until completion of the follow-up visit. Any clinically significant observations in results of clinical laboratory, 12-lead ECGs, vital signs, or physical examinations were recorded as AEs.
(§2) A treatment-emergent AE (TEAE) was defined as any event not present prior to (the first) administration of the study drug or any event already present that worsened in either severity or frequency following exposure to the study drug.
(§3) At several time points before and after drug administration, subjects were asked nonleading questions to determine the occurrence of AEs. Subjects were asked in general terms about any AEs at regular intervals during the study. In addition, all AEs reported spontaneously during the course of the study were recorded. Details included description of the event, date and time of onset, date and time of end, total duration, severity, relationship to study drug, intervention, seriousness, and outcome. All answers were interpreted by the Investigator and were recorded in the eCRF. All AEs were classified according to the Medical Dictionary for Regulatory Activities (MedDRA; Version 22.0) for AEs.
(§4) The severity of the AEs was rated as mild, moderate, or severe; the relationship between the AEs and the study drug was indicated as none, unlikely, possibly, likely, or definitely. Adverse events assessed as possibly, likely, or definitely were considered related to the study drug; AEs assessed as none or unlikely were considered not related to the study drug.
In the MAD part, a 12-lead ECG was recorded continuously by telemetry from 2 hours before to 12 hours after drug administration on Day 1, and from 2 hours before to 24 hours after drug administration on Day 14.

[2] = system: healthy subjects; assay: FIH study, whole study: safety and tolerability
Protocol: The study started with the SAD part.
as §1, §2, §3, §4
(§5) The following parameters were measured: • Clinical chemistry (serum quantitatively): total bilirubin, alkaline phosphatase, gamma glutamyl transferase, aspartate aminotransferase (AST), alanine aminotransferase (ALT), lactate dehydrogenase, creatinine, urea, total protein, glucose, inorganic phosphate, sodium, potassium, • calcium, and chloride • Hematology (blood quantitatively): leukocytes, erythrocytes, hemoglobin, hematocrit, thrombocytes, partial automated differentiation (lymphocytes, monocytes, eosinophils, basophils, and neutrophils), mean corpuscular volume, mean corpuscular hemoglobin, and mean corpuscular hemoglobin concentration • Coagulation (blood quantitatively): prothrombin time (reported in seconds and as international normalized ratio), activated partial thromboplastin time, and fibrinogen • Urinalysis (urine qualitatively): hemoglobin, urobilinogen, ketones, glucose, and protein • Serology: HBsAg, anti-HCV, and anti-HIV 1 and 2 • Drug and alcohol screen: opiates, methadone, cocaine, amphetamines (including ecstasy), cannabinoids, barbiturates, benzodiazepines, tricyclic antidepressants, and alcohol • Pregnancy test (females only): (3-human chorionic gonadotropin in serum
Systolic and diastolic blood pressure and pulse were recorded after the subject had been resting for at least 5 minutes in the supine position. These assessments were made using an automated device. Body temperature and respiratory rate were measured subsequently.
The ECG was recorded using an ECG machine equipped with computer-based interval measurements (with no/minimal disturbance by procedures). The following ECG parameters were recorded: heart rate, PR-interval, QRS-duration, QT-interval, QTcF-interval, and the interpretation of the ECG profile by the Investigator.
Safety and tolerability were assessed through AEs, clinical laboratory, vital signs, ECGs, continuous cardiac monitoring (telemetry), and physical examination findings, and any other parameter that was relevant for safety assessment.

[3] = system: healthy subjects; assay: FIH study, single-dose MR part: safety and tolerability; assay type: in vivo, human; conditions: for ALT, Subject 505: normal range 0-68 IU/L
Protocol: The subjects received a single oral dose of 1 of 4 MR formulations of IMB-1018972 under fasted conditions (an overnight fast of at least 10 hours) on Days 1, 4, 7, and 10 in a fixed order that was the same for all subjects. The MR formulation of IMB-1018972 to be administered on Day 13 under fed conditions was 1 of the 4 MR formulations administered on Days 1, 4, 7, and 10 under fasted conditions. The formulation chosen for administration on Day 13 was the 200 mg 8-hour MR formulation as determined by the Sponsor based on the available safety, tolerability, and PK results of the 4 MR formulations.
as §1, §2, §3, §4, §5

[4] = 50 mg 4-hour MR formulation of IMB-1018972, fasted
[5] = 200 mg 4-hour MR formulation of IMB-1018972, fasted
[6] = single doses of 50 mg or 200 mg MR IMB-1018972 (N=12)
[7] = single-dose MR part, IMB-1018972 (N=12)
[8] = single-dose MR part, of 37 TEAEs

SMILES: COc1ccc(CN2CCN(CCOC(=O)c3cccnc3)CC2)c(OC)c1OC [IMB-1018972, 2-[4-[(2,3,4-trimethoxyphenyl)methyl]piperazin-1-yl]ethyl pyridine-3-carboxylate]
- Number of TEAEs, SOC musculoskeletal and connective tissue disorders ([1]; IMB-1018972 (N=18)): 7
- Number of TEAEs, SOC vascular disorders (flushing) ([1]; IMB-1018972 (N=18)): 7
- Subjects reporting TEAEs considered not related to the study drug ([1]; IMB-1018972 (N=18)): 61.1%
- Subjects reporting TEAEs considered related to the study drug ([1]; IMB-1018972 (N=18)): 33.3%
- Subjects reporting TEAEs, SOC general disorders and administration site conditions ([1]; IMB-1018972 (N=18)): 27.8%
- Subjects reporting TEAEs, SOC musculoskeletal and connective tissue disorders ([1]; IMB-1018972 (N=18)): 27.8%
- Subjects reporting TEAEs, SOC vascular disorders (flushing) ([1]; IMB-1018972 (N=18)): 33.3%
- Number of TEAEs considered related to the study drug ([1]; IMB-1018972 (N=18), all flushing at 150 mg q12h): 7
- Number of TEAEs ([1]; all IMB-1018972 doses (N=18)): 35
- Subjects reporting TEAEs ([1]; all IMB-1018972 doses (N=18)): 77.8%
- Subjects withdrawn from the study due to adverse events ([2]; 1 SAE influenza like illness, 1 TEAE ALT increased): Two
- Hemodynamic changes and QTc-interval ([2]; IR or MR formulations): no findings of hemodynamic changes, nor changes in the QTc-interval
- Dose dependency of number and incidence of TEAEs ([2]; overall): no clear dose dependency
- Overall tolerability ([2]; single and multiple oral doses, IR and MR formulations): generally well tolerated
- Clinical laboratory, vital signs, 12-lead ECG, continuous cardiac monitoring (telemetry), physical examination ([2]; whole study): no findings of clinical relevance
- Deaths ([2]; whole study): no deaths
- Severe TEAEs ([2]; whole study): no severe TEAEs
- Number of TEAEs of moderate severity ([2]; whole study, all treatments): 12
- Total number of TEAEs ([2]; whole study, all treatments): 181
- Number of TEAEs [3, 4]: 9
- Subjects reporting TEAEs [3, 4]: 50%
- Tolerability ([3]; 50 mg and 200 mg MR formulations (4-hour, 8-hour) fasted, 200 mg 8-hour MR fed, except 1 subject with elevated ALT): well tolerated
- Number of TEAEs [3, 5]: 11
- Subjects reporting TEAEs [3, 5]: 66.7%
- ALT, Subject 505 ([3]; Day 2, MR doses on Days 1, 4, 7, 10): 31 IU/L
- ALT, Subject 505 ([3]; Day 5): 72 IU/L
- ALT, Subject 505 ([3]; Day 8): 97 IU/L
- ALT, Subject 505 ([3]; Day 11 (highest)): 149 IU/L
- ALT, Subject 505 ([3]; Day 14): 102 IU/L
- ALT, Subject 505 ([3]; Day 16): 84 IU/L
- ALT, Subject 505 ([3]; follow-up Day 24): 42 IU/L
- Number of drug-related TEAEs (events) of pollakiuria (renal and urinary disorders) [3, 6]: 5
- Subjects reporting pollakiuria [3, 6]: 16.7%
- Dose or dissolution time dependency of number and incidence of TEAEs ([3]; single-dose MR part): no apparent dose or dissolution time dependency
- Moderate TEAE of ALT increased (1 subject, withdrawn): relationship to the study drug (Investigator) ([3]; single-dose MR part): possibly related
- Number of drug-related TEAEs of ALT increased ([3]; single-dose MR part): 1
- Number of drug-related TEAEs of headache ([3]; single-dose MR part): 1
- Severe TEAEs ([3]; single-dose MR part): No severe TEAEs
- TEAEs of flushing ([3]; single-dose MR part): No TEAEs of flushing
- Number of TEAEs considered not related to the study drug ([3]; single-dose MR part (N=12)): 30
- Number of TEAEs considered related to the study drug ([3]; single-dose MR part (N=12)): 7
- Number of TEAEs, SOC gastrointestinal disorders ([3]; single-dose MR part (N=12)): 5
- Number of TEAEs, SOC general disorders and administration site conditions ([3]; single-dose MR part (N=12)): 11
- Number of TEAEs, SOC nervous system disorders ([3]; single-dose MR part (N=12)): 8
- Subjects reporting TEAEs considered not related to the study drug ([3]; single-dose MR part (N=12)): 83.3%
- Subjects reporting TEAEs considered related to the study drug ([3]; single-dose MR part (N=12)): 33.3%
- Subjects reporting TEAEs, SOC gastrointestinal disorders ([3]; single-dose MR part (N=12)): 33.3%
- Subjects reporting TEAEs, SOC general disorders and administration site conditions ([3]; single-dose MR part (N=12)): 58.3%
- Subjects reporting TEAEs, SOC nervous system disorders ([3]; single-dose MR part (N=12)): 58.3%
- Difference between fasted and fed administration for number and incidence of TEAEs ([3]; single-dose MR part, 200 mg 8-hour MR): no clear difference
- Number of TEAEs [3, 7]: 37
- Subjects reporting TEAEs [3, 7]: 83.3%
- Number of TEAEs of mild severity [3, 8]: Thirty-six
- Number of TEAEs of moderate severity [3, 8]: 1
- AST levels, Subject 505 ([3]; throughout the entire period): within normal range
